Laboratory results reported in PubChem BioAssay AID2060508 (Molecular Pharmacology Branch, DTP, NCI, 2025).

System: 454973-116-R2-J3-PDC spheroids, viability, % test/control
Test: Anticancer human tumor 454973-116-R2-J3-PDC patient-derived pancreatic carcinoma cell line growth inhibition [GQUAD]
Settings: spheroids with HUVEC and MSC; for IC50: curve of first compound; for viability, T/C: stronger effect = lower value; active = viability on the fitted dose curve at most 10% of control; inactive = the rest
Text: DNA G-quadruplex Stabilizer Agents in Combinations in Complex Spheroids
A high-throughput screen of multi-cell type tumor spheroids was designed to identify active combinations of DNA G-quadruplex stabilizer agents and targeted small molecules. Complex spheroids include a stromal component modeled by human endothelial cells (HUVEC) and fibroblasts modeled by human mesenchymal stem cells (MSCs). The concentration ranges selected for each drug and investigational agent were based upon clinically achievable concentrations if the clinical Cmax of the agent was known.
Compounds. The drugs and investigational agents: pidnarulex (CX-5461; NSC782164), APTO-253 (NSC789042), BRACO-19 (NSC847499), peposertib (NSC802822), ceralasertib (NSC780249), elimusertib (NSC800525), camonsertib (NSC841442), AZD-1390 (NSC803789), olaparib (NSC753686), talazoparib (NSC767125), ART-558 (NSC835418), sotorasib (NSC818433), MRTX-1133 (NSC836407), SN-38 (NSC673596), topotecan (NSC609699), etoposide (NSC141540), doxorubicin (NSC123127), gemcitabine (NSC613327), 5-fluorouracil (NSC19893), paclitaxel (NSC125973), vemurafenib (NSC761431), panobinostat (NSC761190), R-306465 (JNJ-16241199; NSC773264), adavosertib (NSC754352), TP-3654 (NSC805149), carboplatin (NSC241240), KSQ-4279 (NSC840948), and staurosporine (NSC755774) were obtained from the National Cancer Institute (NCI) Developmental Therapeutics Program Chemical Repository (34). The FDA-approved anticancer drug set is available from the NCI Developmental Therapeutics Program. […] The stock solutions were prepared in dimethyl sulfoxide (DMSO, Sigma-Aldrich, St. Louis, MO, cat. D2650) at 800-fold the tested concentration and stored at -70 degrees C prior to their use. All drugs and investigational agents were tested over a range starting from a high concentration at or near the clinical Cmax and decreasing in half-log increments. If the clinical Cmax for an agent had not been determined, the highest concentration tested was 10 microM.
2.3 Cell Culture. All cells were maintained in an incubator at 37 degrees C and 5% CO2 with 95% humidity. The PDC lines were cultured according to standard operating procedures established by the NCI PDMR. All PDCs were thawed and cultured in Matrigel-coated flasks prepared with a working solution of 1X Ham's F-12 nutrient mix, without supplementation (Invitrogen, cat. 11765054), 100 U/mL penicillin-streptomycin (Invitrogen, cat. 15140122), and 2.5% Matrigel (Corning Inc., cat. 354248) for the first three passages. The 857933-349-R-J2-PDC line was cultured in 6C/Colon 1B media, which includes advanced DMEM/F-12 (Thermo Fisher Scientific, cat. 12634028), 10 mM HEPES (Thermo Fisher Scientific, cat. 15630080), 1X GlutaMAX supplement (Thermo Fisher Scientific, cat. 35050061), 0.1 mg/mL primocin (InvivoGen, cat. ant-pm-2), 10% defined fetal bovine serum, heat inactivated (HyClone Laboratories Inc., cat. SH30070.03HI), 50% L-WRN conditioned media (ATCC, cat. CRL-3276), 1.25 mM N-Acetyl-L-cysteine (Sigma-Aldrich, cat. A9165), 10 mM nicotinamide (Sigma-Aldrich, cat. N0636), 1X B-27 supplement (Thermo Fisher Scientific, cat. 17504044), 1X N-2 supplement (Thermo Fisher Scientific, cat. 17502048), 10 microM Y-27632 dihydrochloride (Tocris Bioscience, cat. 1254), and 50 ng/mL human EGF recombinant protein (Thermo Fisher Scientific, cat. PHG0311). The 485176-168-R4-J1-PDC line was cultured in Panc media, which includes all 6C/Colon 1B media components plus 100 ng/mL human FGF-10 (Thermo Fisher Scientific, cat. 100-26), 500 nM SB-431542 (Selleckchem, cat. S1067), and gastrin (Tocris, cat. 3006).
[…]

[1] = second compound 0.0316 µM, first compound 0.000999 µM
[2] = second compound 0.0316 µM, first compound 0.00316 µM
[3] = second compound 0.0316 µM, first compound 0.00999 µM
[4] = second compound 0.0316 µM, first compound 0.0316 µM
[5] = second compound 0.0316 µM, first compound 0.0999 µM
[6] = second compound 0.0316 µM, first compound 0.316 µM
[7] = second compound 0.1 µM, first compound 0.000999 µM
[8] = second compound 0.1 µM, first compound 0.00316 µM
[9] = second compound 0.1 µM, first compound 0.00999 µM
[10] = second compound 0.1 µM, first compound 0.0316 µM
[11] = second compound 0.1 µM, first compound 0.0999 µM
[12] = second compound 0.1 µM, first compound 0.316 µM
[13] = second compound 0.316 µM, first compound 0.000999 µM
[14] = second compound 0.316 µM, first compound 0.00316 µM
[15] = second compound 0.316 µM, first compound 0.00999 µM
[16] = second compound 0.316 µM, first compound 0.0316 µM
[17] = second compound 0.316 µM, first compound 0.0999 µM
[18] = second compound 0.316 µM, first compound 0.316 µM
[19] = second compound 1 µM, first compound 0.000999 µM
[20] = second compound 1 µM, first compound 0.00316 µM
[21] = second compound 1 µM, first compound 0.00999 µM
[22] = second compound 1 µM, first compound 0.0316 µM
[23] = second compound 1 µM, first compound 0.0999 µM
[24] = second compound 1 µM, first compound 0.316 µM
[25] = second compound 3.16 µM, first compound 0.000999 µM
[26] = second compound 3.16 µM, first compound 0.00316 µM
[27] = second compound 3.16 µM, first compound 0.00999 µM
[28] = second compound 3.16 µM, first compound 0.0316 µM
[29] = second compound 3.16 µM, first compound 0.0999 µM
[30] = second compound 3.16 µM, first compound 0.316 µM
[31] = second compound 10 µM, first compound 0.000999 µM
[32] = second compound 10 µM, first compound 0.00316 µM
[33] = second compound 10 µM, first compound 0.00999 µM
[34] = second compound 10 µM, first compound 0.0316 µM
[35] = second compound 10 µM, first compound 0.0999 µM
[36] = second compound 10 µM, first compound 0.316 µM
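Also: spheroids exposed to compounds for seven days.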

CCc1c2c(nc3ccc(O)cc13)-c1cc3c(c(=O)n1C2)COC(=O)[C@]3(O)CC + CN(C)c1ccc(Nc2c3ccc(NC(=O)CCN4CCCC4)cc3nc3cc(NC(=O)CCN4CCCC4)ccc23)cc1
1.52 nM: IC50 (second compound 0.316 µM)
1.67 nM: IC50 (second compound 0.0316 µM)
inactive: viability, T/C [1] 67.9% | viability, T/C [2] 23.9% | viability, T/C [3] 21.6% | viability, T/C [4] 15.2% | viability, T/C [7] 68.1% | viability, T/C [8] 25.9% | viability, T/C [9] 21.8% | viability, T/C [10] 14.1% | viability, T/C [13] 61.4% | viability, T/C [14] 27.2% | viability, T/C [15] 22.3% | viability, T/C [16] 12.3% | viability, T/C [19] 65.6% | viability, T/C [20] 27.5% | viability, T/C [21] 23.8% | viability, T/C [22] 11.9% | viability, T/C [25] 62.5% | viability, T/C [26] 30.7% | viability, T/C [27] 24.4% | viability, T/C [28] 13.8% | viability, T/C [31] 59.1% | viability, T/C [32] 31.2% | viability, T/C [33] 24.9% | viability, T/C [34] 19.7% | viability, T/C [35] 12.6% | viability, T/C [36] 9.24%
1.48 nM: IC50 (second compound 10 µM)
1.71 nM: IC50 (second compound 0.1 µM)
1.68 nM: IC50 (second compound 1 µM)
active: viability, T/C [5] 6.24% | viability, T/C [6] 5.45% | viability, T/C [11] 6.39% | viability, T/C [12] 4.95% | viability, T/C [17] 7.81% | viability, T/C [18] 5.5% | viability, T/C [23] 8.79% | viability, T/C [24] 5.09% | viability, T/C [29] 11.1% | viability, T/C [30] 5.7%
1.63 nM: IC50 (second compound 3.16 µM)

CCc1c2c(nc3ccc(O)cc13)-c1cc3c(c(=O)n1C2)COC(=O)[C@]3(O)CC + Cc1cnc(CNC(=O)c2c(=O)c3ccc(N4CCCN(C)CC4)nc3n3c2sc2ccccc23)cn1
1.45 nM: IC50 (second compound 1 µM)
active: viability, T/C [5] 7.38% | viability, T/C [6] 4.15% | viability, T/C [11] 7.21% | viability, T/C [12] 4.8% | viability, T/C [18] 4.86% | viability, T/C [23] 7.17% | viability, T/C [24] 2.75% | viability, T/C [29] 7.65% | viability, T/C [30] 0.55% | viability, T/C [35] 0.24% | viability, T/C [36] 0.7%
4.04 nM: IC50 (second compound 3.16 µM)
inactive: viability, T/C [1] 45.7% | viability, T/C [2] 24.6% | viability, T/C [3] 22.9% | viability, T/C [4] 12.3% | viability, T/C [7] 36.2% | viability, T/C [8] 24.1% | viability, T/C [9] 22.9% | viability, T/C [10] 14.8% | viability, T/C [13] 37.7% | viability, T/C [14] 34.2% | viability, T/C [15] 33.7% | viability, T/C [16] 15.9% | viability, T/C [17] 7.83% | viability, T/C [19] 47.1% | viability, T/C [20] 54.1% | viability, T/C [21] 36.5% | viability, T/C [22] 22.2% | viability, T/C [25] 59.7% | viability, T/C [26] 51.9% | viability, T/C [27] 40% | viability, T/C [28] 26.1% | viability, T/C [31] 16.4% | viability, T/C [32] 16.7% | viability, T/C [33] 38.7% | viability, T/C [34] 0.26%
< 0.999 nM: IC50 (second compound 0.0316 µM) | IC50 (second compound 0.1 µM) | IC50 (second compound 0.316 µM) | IC50 (second compound 10 µM)
